Measurements published in article PMC8538351 (Pharmaceuticals, 2021).
Where two headings read alike, the source gives them in different places.

Key:
Vero E6 cells = experiment: Cytotoxicity by MTT assay in Vero E6 cells; type: cell-based, Green Monkey; conditions: Vero E6, MTT, parallel cultures
Procedure: (§1) Cell monolayers were seeded in 96-well plates. The day after cells were treated with a wide range of compound concentrations and forty-eight hours later they were subjected to an MTT assays using standard procedures. The CC50 values were graphically interpolated from dose–response curves obtained with three biological replicates.

SARS-CoV-2 [1] = experiment: Antiviral activity by immunofluorescence microscopy in Vero E6 cells; type: cell-based; conditions: for EC50: Severe acute respiratory syndrome coronavirus 2, Vero C1008, 48 h
Procedure: (§2) Vero E6, A549-ACE2 or Calu3 were seeded onto 96-well plates as described above and infected in the presence of the indicated compound dose (MOI = 0.01). Twenty-four hours post infection (48 h for Calu3 cells), cells were fixed for 20 min at room temperature with a 4% formaldehyde solution in PBS, washed twice with PBS and incubated with incubation buffer (3% BSA; 0.3% Triton X100 in PBS) for 1 h. A monoclonal antibody against the N protein was diluted in the incubation buffer (1:2000, v/v; Genetex HL344) and incubated with the cells for 1 h; after this time, cells were washed with PBS and subsequently incubated with a 1:500 (v/v) dilution of a goat anti-rabbit conjugated to Alexa 488 (Invitrogen-Carlsbad, Carlsbad, CA, USA). Nuclei were stained with DAPI (Life Technologies, Budapest, Hungary) as recommended by the manufacturer during the secondary antibody incubation. Cells were washed with PBS and imaged using an automated multimode reader Spark Cyto (TECAN-Grödig, Austria).
(§3) All the infection experiments were performed by mixing the virus and compound dilutions 1:1 (v/v) before addition to the target cells. In the time-of-addition experiments, Vero E6 cultures were inoculated (MOI from 0.5–1) for 1 h in the presence or absence of the compounds at 37 °C. Subsequently, virus-compound mixtures were left at all times, or removed and replaced with fresh 2% FBS complete media containing or not the tested compounds (see experimental scheme in Figure 7 for details). Cells were fixed 6 h post-inoculation.
(§4) Descriptive statistics were calculated using Microsoft Excel. One-way ANOVA and post hoc tests were calculated using IBM SPSS Software Package (version 26). EC50 and EC90 values were obtained employing the PROBIT regression method using IBM SPSS vs26, except for values in Table 1 that were calculated by graphic interpolation of individual curves.

SARS-CoV-2 [2] = experiment: Time-of-addition experiment in Vero E6 cells (single-cycle infection); type: cell-based; conditions: for efficacy when added during the virus entry phase (in words): versus maintained at all times
Procedure: Next, antiviral efficacy of PheoA was compared when PheoA was (i) present at all times, (ii) added only during virus inoculation, or (iii) added only after virions had effectively penetrated the cells in single-cycle infection experiments ([…]).
as §3

SARS-CoV-2 [3] = experiment: Extracellular viral RNA load by RT-qPCR in A549-ACE2 cells; type: cell-based; conditions: A549-ACE2, 48 h
SARS-CoV-2 [4] = conditions: monolayers protected down to this concentration; read-out: reported EC50; cited from earlier work
SARS-CoV-2 [5] = experiment: Viral RNA load by RT-qPCR in Vero E6 cells; type: cell-based; conditions: 25 µM, Vero E6, MOI 0.001, 72 h post infection
SARS-CoV-2 [6] = experiment: Combination treatment of PheoA with RMDV in Vero E6 cells, immunofluorescence microscopy; type: cell-based; conditions: Severe acute respiratory syndrome coronavirus 2, Vero C1008, 24 h, read-out: EC50 of individual treatment
Procedure: Thus, combination treatments were performed with increasing doses of PheoA and RMDV. Drugs were mixed in different proportions, combined with infectious SARS-CoV-2 (MOI = 0.01) and the mixtures were used to inoculate Vero E6 cells. Twenty-four hours later, cells were fixed and processed to determine the infection efficiency as using immunofluorescence microscopy. […] Increasing concentrations of PheoA improved RMDV efficacy and viceversa.
Synergy analysis was carried out in the web-based platform Synergy Finder (https://synergyfinder.fimm.fi/, accessed on 25 September 2021).

SARS-CoV-2 virions = experiment: Virucidal assay: pre-incubation of virions, residual infectivity titer by TCID50; type: cell-based; conditions: for virus infectivity after pre-incubation (in words): 340 nM
SARS-CoV-2 [7] = experiment: Antiviral activity by immunofluorescence microscopy in Calu3 cells; type: cell-based; conditions: Calu3, MOI 0.005, 48 h; for EC50: Severe acute respiratory syndrome coronavirus 2, Calu-3, 48 h
Procedure: as §2, §3, §4

[8] = Cytotoxicity by MTT assay in Vero E6 cells; type: cell-based, Green Monkey; conditions: green monkey, Vero E6 cells; Vero-E6, MTT, 48 h
Procedure: as §1

[9] = system: vesicular stomatitis virus (VSV-GFP); experiment: microbe, parasite or virus in culture; type: cell-based; conditions: Huh-7
[10] = Cytotoxicity by MTT assay in A549-ACE2 cells; type: cell-based; conditions: human
Procedure: as §1

hCoV-229E = experiment: microbe, parasite or virus in culture; type: cell-based; conditions: Human coronavirus 229E, Huh-7, 48 h
Huh7 cells = conditions: Huh7, 48 h
[11] = Cytotoxicity by MTT assay in Calu3 cells; type: cell-based; conditions: human
Procedure: as §1

SARS-CoV-2 [12] = experiment: Cytopathic effect protection assay (crystal violet) in Huh7-ACE2 cells; type: cell-based; conditions: Huh7-ACE2, 72 h
Procedure: To confirm the antiviral potential of PheoA, a commercially available PheoA stock solution was serially diluted and mixed with a virus stock to inoculate Vero E6 and Huh7-ACE2 cells (human hepatoma cells expressing ACE2). Cells were fixed 72 h post-inoculation and stained with crystal violet to visualize the integrity of the cell monolayer.
(§5) Vero E6 or Huh7-ACE2 cell monolayers were inoculated (MOI = 0.001) in the presence of a wide range of two-fold dilutions of the crude, or partially purified extracts, or pure compounds and incubated for 72 h. Cytopathic effect and lack thereof was visualized by crystal violet staining, as previously described. Untreated and solvent-treated cells were included in each plate as controls. […] A minimum virus dose (10 infectious units/well; MOI 0.001 in 1e4 cells/well) capable of producing overt cytopathic effect was used. Lower virus doses produce visible plaques and complete absence of CPE coincides with the expected endpoint dilution, around 8-fold lower dilutions.

SARS-CoV-2 [13] = experiment: Antiviral activity by immunofluorescence microscopy in A549-ACE2 cells; type: cell-based; conditions: A549-ACE2, MOI 0.01, 48 h; for EC50: Severe acute respiratory syndrome coronavirus 2, A549-ACE2, 48 h
Procedure: as §2, §3, §4

[14] = system: Vero E6, A549-ACE2 and Calu3 cells; experiment: Cytotoxicity by MTT assay, summary for Vero E6, A549-ACE2 and Calu3; type: cell-based; conditions: all three models, assayed doses
Procedure: (§6) PheoA antiviral activity was further confirmed by immunofluorescence microscopy–to estimate virus propagation–and an MTT assay–to evaluate compound cytotoxicity. […] This dataset was used to determine effective concentrations (EC50 and EC90) and cytotoxicity indexes. The estimated EC50 and EC90 values were around 50 nM and 100 nM, respectively, with a wide therapeutic window in all tested cell lines (Table 1)
as §1

[15] = system: retroviral vectors pseudotyped with VSV glycoprotein (VSVpp); type: cell-based
HCV = experiment: microbe, parasite or virus in culture; type: cell-based; conditions: Hepatitis C virus, Huh-7, 48 h
SARS-CoV-2 [16] = experiment: Cytopathic effect protection assay (crystal violet) in Vero E6 cells; type: cell-based; conditions: Vero E6, 72 h
Procedure: In order to explore for the presence of anti-SARS-CoV-2 metabolites in M. polymorpha, we prepared crude extracts of two different M. polymorpha subspecies (subsp. ruderalis from Japan and subsp. polymorpha, from Spain). The anti-SARS-CoV-2 activity of the resulting crude extracts was tested in Vero E6 cell monolayers infected with the SARS-CoV-2 NL2020 strain (Figure 1A). Infection was carried out at a multiplicity of infection (MOI) of 0.001 for 72 h. In the absence of antiviral activity, SARS-CoV-2 infection triggers cell death of Vero E6 cells and results in loss of cell biomass in the well, which is readily visualized as a strong reduction in crystal violet staining (DMSO, Figure 1A). […] Thus, protective activity may be used as a rapid qualitative surrogate assay to facilitate identification of substances with antiviral potential.
as §5, with “Lower virus doses produce visible plaques and complete absence of CPE coincides with the expected endpoint dilution, around 8-fold lower dilutions.” left out

[17] = system: retroviral vectors pseudotyped with SARS-CoV-2 Spike protein (SARS2pp); type: cell-based
SARS-CoV-2 [18] = experiment: Antiviral activity by immunofluorescence microscopy, summary for Vero E6, A549-ACE2 and Calu3; type: cell-based; conditions: Severe acute respiratory syndrome coronavirus 2, all tested cell lines
Procedure: as §6, §2

West Nile Virus = experiment: microbe, parasite or virus in culture; type: cell-based; conditions: Huh-7, 48 h
[19] = system: vesicular stomatitis virus (VSV-GFP); experiment: microbe, parasite or virus in culture; type: cell-based; conditions: A549-ACE2
[20] = Vero E6, MOI 0.005, 48 h, PROBIT regression
[21] = mean ± SD n = 3, graphic interpolation

## C=Cc1c(C)c2cc3nc(c4c5[nH]c(cc6nc(cc1[nH]2)C(C)=C6CC)c(C)c5C(=O)C4)[C@@H](CCC(=O)O)[C@@H]3C [pPheoA, pyropheophorbide a]
Vero E6 cells
  cytotoxicity (in words): absence of measurable cytotoxicity
SARS-CoV-2 [1]; [20]
  EC50: 185 nM

## CCC(CC)COC(=O)[C@H](C)N[P@](=O)(OC[C@H]1O[C@@](C#N)(c2ccc3c(N)ncnn23)[C@H](O)[C@@H]1O)Oc1ccccc1 [RMDV, Remdesivir]
SARS-CoV-2 [2]; Vero E6, MOI 5, 6 h
  antiviral activity when maintained at all times (in words): highly effective at reducing infection efficiency
SARS-CoV-2 [3]; 5 µM
  reduction of extracellular viral RNA: two orders of magnitude
SARS-CoV-2 [4]
  EC50: 1500 nM
SARS-CoV-2 [5]
  viral RNA load: undetectable
SARS-CoV-2 [6]
  EC50: 2000 nM

## C=Cc1c(C)c2cc3nc(c4c5[nH]c(cc6nc(cc1[nH]2)C(C)=C6CC)c(C)c5C(=O)[C@@H]4C(=O)OC)[C@@H](CCC(=O)O)[C@@H]3C [PheoA, Pheophorbide a]
SARS-CoV-2 virions; 30 min
  virus infectivity after pre-incubation (in words): reduced partially
SARS-CoV-2 virions; 60 min
  virus infectivity after pre-incubation (in words): below detection limits
SARS-CoV-2 virions; up to 15 min, room temperature
  virus infectivity after pre-incubation (in words): did not have any significant impact on virus infectivity
SARS-CoV-2 virions; 30 min pre-incubation, 10^5 TCID50/mL, room temperature
  dose giving statistically significant reduction in remaining virus infectivity: above 67 nM
SARS-CoV-2 [7]; [21]
  EC50: 35 ± 20 nM
SARS-CoV-2 [7]; Severe acute respiratory syndrome coronavirus 2, Calu-3, mean ± SD n = 3
  EC90: 98 ± 8 nM
SARS-CoV-2 [2]; Vero E6, MOI 5, 6 h
  antiviral activity when maintained at all times (in words): expected antiviral activity
  efficacy when added during the virus entry phase (in words): nearly identical
SARS-CoV-2 [2]; Vero E6, MOI 5, fixed 6 h post-inoculation
  efficacy when added after virion internalization: ca. 6 % of the maximum efficacy
[8]
  CC50 at 48 h: > 8420 nM
[9]
  EC50: 506 nM
[10]
  CC50 at 48 h: 2600 ± 500 nM
hCoV-229E
  EC50: 128 nM
Huh7 cells
  cytotoxicity (in words): no cytotoxicity was observed
SARS-CoV-2 [3]; increasing concentrations
  viral RNA accumulation (in words): reduced viral RNA accumulation in a dose-dependent manner
[11]
  CC50 at 48 h: > 8420 nM
SARS-CoV-2 [12]
  concentration with consistent protective capacity: above 65 nM
SARS-CoV-2 [1]; Vero-E6, MOI 0.005, 48 h, mean ± SD n = 3, graphic interpolation
  EC50: 54 ± 13 nM
SARS-CoV-2 [1]; Severe acute respiratory syndrome coronavirus 2, Vero C1008, Vero-E6, MOI 0.005, 48 h, mean ± SD n = 3
  EC90: 106 ± 16 nM
SARS-CoV-2 [13]; [21]
  EC50: 62 ± 25 nM
SARS-CoV-2 [13]; Severe acute respiratory syndrome coronavirus 2, mean ± SD n = 3
  EC90: 201 ± 84 nM
[14]
  cytotoxicity (in words): no cytotoxicity was observed
[15]
  maximum reduction of infection efficiency: ≤ 40%
SARS-CoV-2 [6]
  EC50: 40 nM
HCV
  EC50: 300 nM
SARS-CoV-2 [16]
  concentration with consistent protective capacity: above 65 nM
[17]; maximum dose 675 nM, 48 h
  maximum reduction of infection efficiency: ≤ 40%
SARS-CoV-2 [18]; read-out: estimated EC50
  EC50: ~50 nM
SARS-CoV-2 [18]; read-out: estimated EC90
  EC90: ~100 nM
West Nile Virus
  EC50: 64 nM
[19]
  EC50: 578 nM

## Cc1ccc(NC(=O)c2ccc(CN3CCN(C)CC3)cc2)cc1Nc1nccc(-c2cccnc2)n1 [imatinib, Imatinib]
SARS-CoV-2 [2]; 15 µM, Vero E6, MOI 5, 6 h
  efficacy when added after virion internalization (in words): greatly lost efficacy
SARS-CoV-2 [2]; Vero E6, MOI 5, 6 h
  antiviral activity when maintained at all times (in words): expected antiviral activity
  efficacy when added during the virus entry phase (in words): comparable efficacy
[15]; 15 µM
  entry inhibition (in words): not VSVpp entry
[17]; 15 µM
  entry inhibition (in words): selectively inhibited SARS2pp

## C=Cc1c(C)c2cc3nc(c4c5[nH]c(cc6nc(cc1[nH]2)C(C)=C6CC)c(C)c5C(=O)[C@@H]4C(=O)OC)[C@@H](CCC(=O)O)[C@@H]3C [Semi-synthetic PheoA, Pheophorbide a]
SARS-CoV-2 [7]; PROBIT regression
  EC50: 38 nM
SARS-CoV-2 [1]; [20]
  EC50: 51 nM
SARS-CoV-2 [13]; PROBIT regression
  EC50: 74 nM
